In patent publication US12343403B2, “Targeted ligand-payload based drug delivery for cell therapy” (Purdue Research Foundation, priority 2017, dated 2025):
“Also recorded” adds a separate entry of the source.

Columns and labels:
4M5.3FR+ human T cells = assay: Cell viability assay, 4M5.3FR+ human T cells; format: cell-based
[1] = system: 4M5.3FR+ population in a mixed human T cell culture; assay: Killing of 4M5.3FR+ population in a mixed human T cell culture; format: cell-based
[2] = system: FMC63+4M5.3FR+hT cell towards Raji cell; assay: CAR T cell lysis effect, FMC63+4M5.3FR+ hT cell towards Raji cell; format: cell-based, human
Description: 1×10^5 CAR T and certain number of Raji cell were co-incubated in 96 well plate, according to the E:T ratio, with or without the treatment drug. After 24 h, 100 ul supernatant were taken out for LDH assay. Lysis percentage were calculated as (treatment group-CAR T only)/(maximum lysis-CAR T only) %

[3] = target: T1, FKBPFR3GS fusion receptor (Homo sapiens, UniProt P62942); assay: Binding assay of ligand-dye on FKBPFR3GS (FF3) fusion receptor stably expressed on human T cell, flow cytometry
T1 construct: human FRa signal peptide (1-24 aa of human FRa) (N); expressed in transfected cells; host or cells: human T cells / Jurkat T cells, lentiviral transduction
T1 sequence (P62942 with tags, fused parts or gaps): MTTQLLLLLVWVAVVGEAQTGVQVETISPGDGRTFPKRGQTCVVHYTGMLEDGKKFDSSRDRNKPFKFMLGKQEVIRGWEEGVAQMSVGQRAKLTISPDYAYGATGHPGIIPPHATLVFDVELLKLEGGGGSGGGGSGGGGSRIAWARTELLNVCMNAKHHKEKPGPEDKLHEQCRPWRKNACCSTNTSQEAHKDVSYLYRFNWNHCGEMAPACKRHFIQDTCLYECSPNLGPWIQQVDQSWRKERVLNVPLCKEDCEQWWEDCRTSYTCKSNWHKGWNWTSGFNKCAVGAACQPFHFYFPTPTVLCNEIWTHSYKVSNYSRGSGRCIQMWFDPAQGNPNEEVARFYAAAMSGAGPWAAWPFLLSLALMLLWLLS
Description: For binding assay, cells were incubated with ligand-dye alone or with ligand-dye and free ligands (100×, preincubated for 30 min) for 30 min, at 4 degree. Cells were washed 3 times after incubation, and re-suspended in 2% FBS PBS, 7-AAD were added to gate out the dead cells. […] FRET is visualized by the loss of intensity of FA-Rhodamine as its energy transferred to FA-OTL38 on the same or nearby receptor, detected by BD Fortessa flow cytometer. Results were analyzed using Flow Jo software.
For binding assay, cells were incubated with ligand-dye alone or with ligand-dye and free ligands (100×, preincubated for 30 min) for 30 min, at 4 degree. Cells were washed 3 times after incubation, and re-suspended in 2% FBS PBS, 7-AAD were added to gate out the dead cells. BD Fortessa flow cytometer were used. Results were analyzed using FlowJo software.

FKBP51 = target: T2, FKBP51 (Homo sapiens, UniProt Q13451); details: read-out: KD FK506; cited from earlier work
T2 sequence (Q13451 1-457): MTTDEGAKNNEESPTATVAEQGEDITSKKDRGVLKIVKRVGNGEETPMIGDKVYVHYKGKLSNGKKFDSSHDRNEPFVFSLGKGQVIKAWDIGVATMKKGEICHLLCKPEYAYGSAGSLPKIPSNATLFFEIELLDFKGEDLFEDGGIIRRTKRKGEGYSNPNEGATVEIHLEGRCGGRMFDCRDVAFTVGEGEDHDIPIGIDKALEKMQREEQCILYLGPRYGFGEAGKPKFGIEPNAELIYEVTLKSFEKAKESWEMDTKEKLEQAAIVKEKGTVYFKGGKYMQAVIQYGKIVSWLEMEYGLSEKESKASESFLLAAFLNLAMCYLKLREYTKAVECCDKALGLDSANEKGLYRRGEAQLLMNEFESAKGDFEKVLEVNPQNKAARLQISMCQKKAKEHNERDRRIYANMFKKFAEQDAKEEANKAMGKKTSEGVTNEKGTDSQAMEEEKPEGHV

[4] = target: T3, FKBPFR1GS fusion receptor (Homo sapiens, UniProt P62942); assay: Interference/FRET binding assay in FKBPFR1GS (FF1) fusion receptor Jurkat cells
T3 construct: human FRa signal peptide (1-24 aa of human FRa) (N); expressed in transfected cells; host or cells: Jurkat cells, lentiviral transduction
T3 sequence (P62942 with tags, fused parts or gaps): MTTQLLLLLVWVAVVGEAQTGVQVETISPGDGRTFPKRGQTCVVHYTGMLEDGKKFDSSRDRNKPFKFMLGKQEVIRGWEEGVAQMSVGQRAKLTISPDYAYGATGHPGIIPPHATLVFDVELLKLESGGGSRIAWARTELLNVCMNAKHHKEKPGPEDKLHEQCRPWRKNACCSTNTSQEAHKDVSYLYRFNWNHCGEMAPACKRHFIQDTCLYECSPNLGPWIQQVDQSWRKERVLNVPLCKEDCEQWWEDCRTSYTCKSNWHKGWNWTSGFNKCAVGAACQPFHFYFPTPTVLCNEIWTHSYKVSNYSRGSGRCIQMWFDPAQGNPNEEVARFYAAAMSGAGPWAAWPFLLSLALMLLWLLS
Description: Cells were washed 3 times after incubation, and re-suspended in 2% FBS PBS, 7-AAD were added to gate out the dead cells. […] Results were analyzed using Flow Jo software. […]

FF3+ human T cell = details: 100× preincubation with FA
Description: Cells were seeded to 96 well plate and incubated with different concentration of certain ligand-cytotoxic drug for 2 h, with or without 100× preincubation of the free ligand competition. After 2 h incubation, cells were washed by warm medium 3 times and replenished with fresh medium. After 72 h, cell number were tested by CellTiter-Glo® assay (G7570, Promega) or quantified by ligand-dye staining of receptor positive cell.

[5] = scFv against FITC; cited from earlier work

COc1cc2cc(c1Cl)N(C)C(=O)C[C@H](OC(=O)[C@H](C)N(C)C(=O)CCC(C)(C)SSCCNC(=S)Nc1cccc3c1C(=O)OC31c3ccc(O)cc3Oc3cc(O)ccc31)C1(C)O[C@H]1[C@H](C)C1CC(O)(NC(=O)O1)[C@H](OC)/C=C\C=C(\C)C2 (stereo partly drawn) [FITC-DM4]
killing of 4M5.3FR+ human T cells (4M5.3FR+ human T cells; 2 h incubation, read after 72 h): specifically kill
killing of 4M5.3FR+ population in mixed human T cell culture ([1]; 4M5.3FR+ cells, increasing concentration): specifically kill the 4M5.3FR+ population
killing of 4M5.3FR- cells in mixed human T cell culture ([1]; 4M5.3FR- cells, high concentration, bystander effect): killed also through released drugs and bystander effect at high concentration

Cc1nc(Nc2ncc(C(=O)Cc3c(C)cccc3Cl)s2)cc(N2CCN(CCOC(=O)OCCSSCCNC(=S)Nc3ccc4c(c3)C(=O)OC43c4ccc(O)cc4Oc4cc(O)ccc43)CC2)n1 [FITC-Dasatinib]
lysis effect of FMC63+4M5.3FR+ hT cell towards Raji cell [2]: decrease the lysis effect

CO[C@H]1C[C@@H](C)[C@@]2(O)O[C@H]1[C@H](OC)C[C@H](C)C/C(C)=C\[C@H](C/C=C/c1ccc(C(=O)NCCCOCCOCCOCCCNC(=O)c3ccc(-c4c5ccc(=[N+](C)C)cc-5oc5cc(N(C)C)ccc45)c(C(=O)O)c3)cc1)C(=O)C[C@H](O)[C@@H](C)[C@@H](/C(C)=C/[C@@H]1CC[C@@H](O)[C@H](OC)C1)CC(=O)C1CCCCN1C(=O)C2=O (stereo partly drawn) [FK506-Rhodamine]
binding of FK506-Rhodamine in the presence of FA ([3]; FF3 (3GS linker) compared to FF1, 10 nM FA): preserves the binding

C=CC[C@@H]1/C=C(\C)C[C@H](C)C[C@H](OC)[C@H]2O[C@@](O)(C(=O)C(=O)N3CCCC[C@H]3C(=O)O[C@H](/C(C)=C/[C@@H]3CC[C@@H](O)[C@H](OC)C3)[C@H](C)[C@@H](O)CC1=O)[C@H](C)C[C@@H]2OC [FK506]
Kd (FKBP51): ~0.104 µM

Nc1nc(=O)c2nc(CNc3ccc(C(=O)N[C@@H](CCC(=O)O)C(=O)O)cc3)cnc2[nH]1 [Folate acid]
concentration at which Folate acid totally abolishes FK506-Rhodamine binding ([4]; FKBPFR1GS fusion protein): 50 nM
concentration at which Folate acid blocks the binding of FK506-Rhodamine ([4]; FKBPFR1GS fusion protein, lowest blocking concentration): ≥ 10 pM
competition of FA-Tubulysin killing effect by FA (FF3+ human T cell): blocks the effect

COc1ccc(CCC(OC(=O)C2CCCCN2C(=O)C(=O)C(C)(C)C)c2cccc(NC(=O)CCC(=O)NCCOCCOCCOCCNC(=S)Nc3ccc(-c4c5ccc(=O)cc-5oc5cc(O)ccc45)c(C(=O)O)c3)c2)cc1OC (stereo not drawn) [SLF-FITC]
Kd ([3]; FKBPFR3GS fusion receptor stably expressed on human T cell, 30 min, 4 degree): 0.062 µM

CCC(C)(C)C(=O)C(=O)N1CCCC[C@H]1C(=O)O[C@H](CCc1ccc(OC)c(OC)c1)c1cccc(OCC(=O)O)c1 [SLF]
times lower binding affinity to FKBPFR fusion receptor compared to parent ligand FK506 ([3]; SLF vs FK506): 10 times
competition of SLF-FITC binding by free SLF ([3]; free SLF 100×, preincubation): blocks SLF-FITC binding; also recorded: blocks this binding

FITC sodium
competition of receptor mediated killing effect by free FITC sodium (4M5.3FR+ human T cells; 100× preincubation): blocks the receptor mediated killing effect

OTL38
FRET: FK506-Rhodamine intensity after binding to OTL38 ([4]; FKBPFR1GS jurkat cell, FK506-Rhodamine donor, OTL38 acceptor): decreased FK506-Rhodamine intensity

B1: 4M5.3: scFv against FITC, SEQ ID NO:19 (protein)
scFv: DVVMTQTPLSLPVSLGDQASISCRSSQSLVHSNGNTYLRWYLQKPGQSPKVLIYKVSNRVSGVPDRFSGSGSGTDFTLKINRVEAEDLGVYFCSQSTHVPWTFGGGTKLEIKSSADDAKKDAAKKDDAKKDDAKKDGGVKLDETGGGLVQPGGAMKLSCVTSGFTFGHYWMNWVRQSPEKGLEWVAQFRNKPYNYETYYSDSVKGRFTISRDDSKSSVYLQMNNLRVEDTGIYYCTGASYGMEYLGQGTSVTVSS
modifications: A synthetic scFv against FITC 4M5.3(Kd = 200pM)
Kd [5]: 0.0002 µM
